From PubChem BioAssay (NCI)
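Five concentrations, 48 hours, 96-well plates. Abbreviation: GI50, concentration required for 50% inhibition of growth. TGI marks complete inhibition of growth.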

Key:
Assay in all cases: inhibition of tumour cell growth, NCI panel, 48 h
[1] = system: RPMI-8226 leukemia
[2] = system: ACHN renal
[3] = system: A498 renal
[4] = system: CCRF-CEM leukemia
[5] = system: A549 NSCLC
[6] = system: SNB-75 CNS
[7] = system: OVCAR-3 ovarian
[8] = system: MDA-N
[9] = system: SF-295 CNS

SMILES	TGI [1]	TGI [2]	TGI [3]	TGI [4]	TGI [5]	TGI [6]	TGI [7]	TGI [8]	TGI [9]	GI50 [1]	GI50 [2]	GI50 [4]	GI50 [5]	GI50 [6]	GI50 [7]	GI50 [9]	GI50 [3]
Cc1cc2c(cc1-c1cc3c(cc1C)C(C(C)C)=C(O)C(=O)/C3=C\Nc1nc(-c3ccccc3)cs1)/C(=C/Nc1nc(-c3ccccc3)cs1)C(=O)C(O)=C2C(C)C	> 100 µM	31.2 µM	98.6 µM	64.4 µM	57.2 µM	> 100 µM	36 µM	> 100 µM	40.9 µM	–	–	–	–	–	–	–	–
CCOC(=O)c1ccc(-c2cc(C)[nH]n2)[nH]1	> 100 µM	> 100 µM	> 100 µM	> 100 µM	> 100 µM	> 100 µM	> 100 µM	> 100 µM	> 100 µM	–	–	–	–	–	–	–	–
CC1(C)CCC[C@]2(C)[C@@H]1CC[C@@]13O[C@@H]1C1=C(CO)C(=O)O[C@]14O[C@@H]4[C@@H]23	> 100 µM	30.2 µM	32.9 µM	–	23.5 µM	30.6 µM	27.1 µM	20.1 µM	32.3 µM	–	–	–	–	–	–	–	–
COCn1c(C)c(C)c2c(=O)oc(=O)[nH]c21	> 100 µM	> 100 µM	> 100 µM	> 100 µM	> 100 µM	> 100 µM	–	> 100 µM	> 100 µM	–	–	–	–	–	–	–	–
COc1c(-c2cc(C)c(Cl)c(=O)[nH]2)c(O)c(OC)c2occc12	> 100 µM	> 100 µM	–	–	> 100 µM	> 100 µM	> 100 µM	> 100 µM	> 100 µM	–	–	–	–	–	–	–	–
CSC1=Nc2ccccc2-c2nc(-c3ccccc3)cc(-c3ccccc3)c2C1	> 100 µM	41.8 µM	> 100 µM	> 100 µM	> 100 µM	16.8 µM	–	> 100 µM	64.2 µM	–	–	–	–	–	–	–	–
CCCC1NC(C#N)(C#N)C(CCC)NC1(C#N)C#N (configuration not stated)	0.943 µM	> 100 µM	> 96.4 µM	17.8 µM	> 100 µM	> 41.1 µM	29.1 µM	> 55 µM	> 100 µM	–	–	–	–	–	–	–	–
CCOC(=O)c1c(SC(=O)c2cc(OC)c(OC)c(OC)c2)n(-c2ccccc2)c(=S)n(-c2ccccc2)c1=O	–	> 100 µM	> 100 µM	> 100 µM	> 100 µM	> 100 µM	> 100 µM	> 100 µM	> 100 µM	–	–	–	–	–	–	–	–
c1ccc2c(c1)c1c(n2CCOCCN2CCCCC2)CCCC1	28 µM	27.7 µM	–	29.6 µM	30.1 µM	26.7 µM	21.7 µM	28.7 µM	29.7 µM	–	–	–	–	–	–	–	–
O=C1Cc2c(-c3ccc(Cl)cc3)cc(-c3ccccc3)nc2-c2ccccc2N1	60.8 µM	28.3 µM	6.67 µM	> 63.3 µM	23.2 µM	14.2 µM	27.1 µM	55.8 µM	26.6 µM	–	–	–	–	–	–	–	–
COc1cc2c(cc1OCCCC(=O)Nc1cc(C(=O)Nc3cc(C(=O)Nc4cc(C(=O)NCCCN(C)C)n(C)c4)n(C)c3)n(C)c1)N=C[C@@H]1CCCN1C2=O	14.6 µM	2.99 µM	26.4 µM	> 100 µM	36.1 µM	9.95 µM	3.62 µM	3.8 µM	26.4 µM	–	–	–	–	–	–	–	–
COc1cc(/C=C2\C[C@H]3[C@@H]4CC=C5C[C@@H](N6CCCC6)CC[C@]5(C)[C@H]4CC[C@]3(C)[C@H]2O)cc(OC)c1OC	27 µM	29.3 µM	30.2 µM	> 100 µM	33.1 µM	25.8 µM	31.2 µM	–	26.6 µM	–	–	–	–	–	–	–	–
N#CCCNCCN(CCN(C(=O)Nc1ccccc1)c1ccccc1)C(=O)Nc1ccccc1	> 100 µM	> 100 µM	> 100 µM	> 100 µM	> 100 µM	> 100 µM	–	> 100 µM	> 100 µM	–	–	–	–	–	–	–	–
C(=N\Nc1ncc(-c2cc3cc4c(cc3o2)OCO4)s1)/c1c[nH]c2ccccc12	> 100 µM	2.61 µM	–	> 100 µM	3.1 µM	2.89 µM	1.89 µM	–	4.31 µM	1.55 µM	0.86 µM	0.392 µM	0.487 µM	1.4 µM	0.536 µM	1.82 µM	–
CCSc1ncnc2c(C3OC(CO)C(O)C3O)nsc12 (configuration not stated)	–	–	> 100 µM	> 100 µM	> 100 µM	> 100 µM	> 100 µM	> 100 µM	> 100 µM	–	–	–	–	–	–	–	–
CCN(CC)CCCCCCCCNc1c2ccc(Cl)cc2nc2ccc(OC)cc12	3.34 µM	2.5 µM	2.78 µM	6.32 µM	3.62 µM	3.15 µM	4.33 µM	–	3.95 µM	0.675 µM	1.03 µM	0.634 µM	1.56 µM	1.49 µM	1.91 µM	1.68 µM	1.41 µM
O=C(O)Cc1ccc(Oc2nc3ccccc3nc2-c2cccs2)cc1	> 100 µM	> 100 µM	84.7 µM	> 100 µM	> 100 µM	83.2 µM	> 100 µM	> 100 µM	> 100 µM	–	–	–	–	–	–	–	–
Cn1ccnc1CCc1ccc(F)cc1F	> 100 µM	> 100 µM	> 100 µM	> 100 µM	> 100 µM	> 100 µM	> 100 µM	> 100 µM	> 100 µM	–	–	–	–	–	–	–	–
Cc1cc(S(=O)(=O)Nc2nc3ccsc3c(=O)n2N)c(S)cc1Cl	> 100 µM	> 100 µM	–	> 100 µM	> 100 µM	> 100 µM	> 100 µM	> 100 µM	> 100 µM	–	–	–	–	–	–	–	–
COC(c1ccsc1)C(C#N)(C#N)N=Cc1ccsc1 (configuration not stated)	–	54.6 µM	29.1 µM	39 µM	> 100 µM	29.9 µM	42.2 µM	33.4 µM	34.9 µM	–	–	–	–	–	–	–	–
C=CCNC1=C2C[C@@H](C)C[C@@H](OC)C(OC(=O)CCCN(C)C)[C@H](C)/C=C(\C)[C@@H](OC(N)=O)[C@H](OC)/C=C\C=C(/C)C(=O)NC(=CC1=O)C2=O (some centres not stated)	44.3 µM	20.6 µM	26.9 µM	31.3 µM	14.6 µM	22.9 µM	11.7 µM	19.8 µM	20.5 µM	–	–	–	–	–	–	–	–
COc1ccc2c(c1)OCC1(O)Cc3ccccc3OC21 (configuration not stated)	> 100 µM	> 100 µM	> 100 µM	> 100 µM	> 100 µM	> 100 µM	> 100 µM	> 100 µM	> 100 µM	–	–	–	–	–	–	–	–
